The record followed here is publication PMC3574224, “Na^+ Regulation in the Malaria Parasite Plasmodiumfalciparum Involves the Cation ATPase PfATP4 and Is a Target of the Spiroindolone Antimalarials” (Cell Host & Microbe, 2013).

Experiment [1] relates to P. falciparum 3D7 trophozoites. As to the kind of experiment: microbe, parasite or virus in culture. The class given is cell-based, Plasmodium falciparum. On the procedure:
P. falciparum strains 3D7, Dd2, NITD609-R^Dd2 clone #2, Dd2^attB, and Dd2^attB CAM I398F/P990R were cultured under shaking conditions as described elsewhere ([Allen and Kirk, 2010]). Cultures were synchronized 24 hr before experimentation using 5% w/v sorbitol ([Lambros and Vanderberg, 1979]). All experiments were conducted on mature trophozoite-stage parasites (36–40 hr postinvasion) functionally isolated from their host erythrocytes by permeabilization of the erythrocyte and parasitophorous vacuole membranes by brief exposure to saponin (0.05% w/v) as described previously ([Spillman et al., 2008]).
(§1) The [Na^+]i of saponin-isolated parasites was measured at 37°C using the Na^+-sensitive dye SBFI (Molecular Probes, Invitrogen) in conjunction with a PerkinElmer LS 50B Fluorescence Spectrometer fitted with a Dual Excitation Fast Filter. Saponin-isolated parasites were loaded with SBFI by suspension (at 1.40–1.80 × 10^8 cells/mL) for 20 min at 37°C in bicarbonate-free RPMI1640 supplemented with 20 mM D-glucose, 0.2 mM hypoxanthine, 25 mM HEPES, and 25 mg/L gentamycin sulfate (pH 7.10), to which SBFI-acetoxymethyl ester (5.5 μM) and Pluronic F-127 (0.01% w/v) were added. The dye-loaded cells were washed twice (12,000 × g, 0.5 min) in bicarbonate-free RPMI then incubated for a further 20 min at 37°C to allow for complete de-esterification of the dye before being resuspended at a final cell concentration of 1.5–2.5 × 10^7 cells/mL in standard saline. The dye-loaded cells were excited at 340 nm and 380 nm with fluorescence recorded at 490 nm. Calibration of the relationship between the 340/380 nm fluorescence ratio and [Na^+]i (see Figures S1A–S1C) was carried out as described previously ([Diarra et al., 2001]; [Harootunian et al., 1989]).
The initial Na^+ influx rate (at t = 0) is a × Δ[Na^+]i^max.
(§2) Dose-response curves were obtained using the expression y = y^min + y^max/(1 + [C/IC50]^b), where y is the parameter being measured (parasite proliferation, Na^+ influx, or ATPase activity), y^min is the minimum value of y, y^max is the maximum value of y, C is the concentration of the moiety that was varied in the experiment, IC50 is the concentration at which y was reduced to 50% of y^max, and b is a fitted constant.

For experiment [2], the system named is P. falciparum trophozoites. As to the kind of experiment: Recovery of [Na^+]i from an imposed intracellular Na^+ load (K^+ removal and restoration). Format: cell-based, Plasmodium falciparum. Particulars: added with 10 mM KCl. On the procedure: The mechanism responsible for the increase in [Na^+]i seen upon removal of extracellular K^+ was not investigated further here. However, the phenomenon does provide a useful means of imposing an intracellular Na^+ load on the parasite and of testing the effect of inhibitors on the net efflux of Na^+ from the Na^+-loaded parasite.
as §1, with “1989]). Several inhibitors used in this study caused inner filter effects ([Gu and Kenny, 2009]; [Srinivas and Mutharasan, 1987]); in these cases calibration curves were generated with the inhibitors present.” for “1989]).”
The rate of efflux of Na^+ from the cells, following an imposed intracellular Na^+ load, was estimated by fitting the following function to the [Na^+]i traces: [Na^+]i = Δ[Na^+]i^max × e^-at + [Na^+]i^final, where Δ[Na^+]i^max is the increase in [Na^+]i above the normal resting value (following the imposition of an intracellular Na^+-load), t is the time after the commencement of efflux (on addition of extracellular K^+), a is a fitted constant, and [Na^+]i^final is the final value of [Na^+]i. The initial Na^+ efflux rate (at t = 0) is a × Δ[Na^+]i^max, and the half-time to complete recovery (t1/2) is ln(0.5)/-a.

The subject of experiment [3] is P. falciparum trophozoites. As to the kind of experiment: Cytosolic pH (pHi) in BCECF-loaded saponin-isolated parasites. The class given is cell-based, Plasmodium falciparum. To be noted: 50 nM. On the procedure:
pHi of saponin-isolated parasites was measured using the pH-sensitive indicator BCECF (Molecular Probes, Invitrogen) as described previously ([Saliba and Kirk, 1999]). […] Critical experiments performed using SBFI-loaded parasites were repeated with parasites loaded with BCECF.

Experiment [4] concerns P. falciparum Dd2 parent. Briefly: Parasite proliferation, [^3H]hypoxanthine incorporation, Dd2 parent. Particulars: Plasmodium falciparum, DD2, read-out: IC50 for inhibition of parasite proliferation by NITD246. Format: cell-based. On the procedure: (§3) Parasite growth assays were performed in 96-well plates over 48 hr (commencing at the ring stage) using a standard [^3H]hypoxanthine incorporation assay ([Desjardins et al., 1979]).
as §2

The test system of experiment [5] is P. falciparum NITD609-R^Dd2 clone #2 (mutant PfATP4). Briefly: Parasite proliferation, [^3H]hypoxanthine incorporation, NITD609-R^Dd2 clone #2. Format: cell-based. Particulars: Plasmodium falciparum, mean ± SEM (n), read-out: IC50 for inhibition of parasite proliferation by NITD246. On the procedure:
as §3, §2

In experiment [6] the test system is P. falciparum Dd2 parent. As to the kind of experiment: Disruption of [Na^+]i regulation, SBFI-loaded trophozoites, Dd2 parent. Format: cell-based. To be noted: Plasmodium falciparum, DD2, read-out: IC50 for disruption of Na^+ regulation by NITD246. On the procedure: as §1, with “1989]). Several inhibitors used in this study caused inner filter effects ([Gu and Kenny, 2009]; [Srinivas and Mutharasan, 1987]); in these cases calibration curves were generated with the inhibitors present. […]” for “1989]).”

On to `C[C@H]1Cc2c([nH]c3cc(F)c(F)cc23)[C@@]2(N1)C(=O)Nc1ccc(Cl)cc12` [NITD246], for which the “Effect on resting [Na^+]i” value in experiment [1] (50 nM, 3D7, standard saline) is “immediate rapid increase in [Na^+]i”. In addition, the IC50 in experiment [1] (Plasmodium falciparum, concentration causing [Na^+]i to increase from resting value at half the maximal rate, from fitted curves, 3D7, standard saline, read-out: IC50 for disruption of Na^+ regulation) worked out at 2.1 ± 0.8 nM; in experiment [4] it was 0.08 ± 0.01 nM; in experiment [5] it was 0.89 ± 0.12 nM; in experiment [6], 1.6 ± 0.3 nM. The “Rate of increase of [Na^+]i at maximally effective concentrations” value in experiment [1] (maximally effective concentration) turned out to be 0.092 ± 0.007 mM/s. Also, the “Effect on recovery of [Na^+]i after Na^+ load” value in experiment [2] (1 nM) was “[Na^+]i remaining at the level reached at the point of addition of extracellular K^+”; in experiment [2] (5 nM), “prolonged time-dependent increase in [Na^+]i”. The “Cytosolic pH (pHi) after addition” value in experiment [3] (Na^+-containing medium pH 7.1, increase from 7.33 ± 0.03, n = 6, p = 0.009) is given as 7.46 ± 0.02. Moreover, the “Effect on pHi” value in experiment [3] (solution containing choline^+ in place of Na^+) is “no significant effect”.
